This passage reports IC50 results from patent US12060347B2 (BRISTOL-MYERS SQUIBB COMPANY, priority 2016, dated 2024).

The target of this experiment is T1, human PAR4 (Homo sapiens, UniProt Q96RI0).
T1 construct: expressed in transfected cells; host or cells: HEK293 PAR4 Clone 1.2A (BMS Arctic ID 383940)
T1 sequence (Q96RI0 18-385): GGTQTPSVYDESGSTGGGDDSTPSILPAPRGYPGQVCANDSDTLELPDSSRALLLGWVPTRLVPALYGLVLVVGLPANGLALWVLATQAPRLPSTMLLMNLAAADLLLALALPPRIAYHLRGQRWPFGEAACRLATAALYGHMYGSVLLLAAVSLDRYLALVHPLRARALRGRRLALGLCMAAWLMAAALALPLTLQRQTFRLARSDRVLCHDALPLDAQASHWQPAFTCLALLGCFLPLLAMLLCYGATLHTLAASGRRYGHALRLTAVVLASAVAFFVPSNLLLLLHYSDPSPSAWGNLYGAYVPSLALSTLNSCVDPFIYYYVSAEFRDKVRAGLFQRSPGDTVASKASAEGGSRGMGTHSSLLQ
The experiment is described as follows: PAR4 FLIPR assay: antagonism of agonist-peptide-induced calcium mobilization in PAR4-expressing HEK293 cells. In kind it is cell-based. To be noted: H-Ala-Phe(4-F)-[…]NH2-induced intracellular calcium mobilization, 11-point curves. Background: Calcium assays in cells follow changes in intracellular calcium, usually with a dye or a luminescent sensor.
Regarding `COc1cc(F)cc(C(O)c2cc(OC)cc3sc(-c4cc(C)cc5nc(OC)cnc45)nc23)c1` (centres unmarked) [Example 675, (3-fluoro-5-methoxyphenyl)(6-methoxy-2-(2-methoxy-7-methylquinoxalin-5-yl)benzo[d]thiazol-4-yl)methanol], the IC50 was determined as 10 nM. Consider `COc1cc(C(O)C2(C)CCCCC2)c2nc(-c3cc(C)cc4nc(OC)cnc34)sc2c1` (centres unmarked) [Example 676, (6-methoxy-2-(2-methoxy-7-methylquinoxalin-5-yl)benzo[d]thiazol-4-yl)(1-methylcyclohexyl)methanol], for which the concentration for half-maximal inhibition (IC50) turned out to be 3.2 nM.

In the case of `COc1cc(C(C)O)c2nc(-c3cc(C)cc4nc(OC)cnc34)sc2c1` (centres unmarked) [Example 677, 1-(6-methoxy-2-(2-methoxy-7-methylquinoxalin-5-yl)benzo[d]thiazol-4-yl)ethan-1-ol], the IC50 came out at 3.8 nM. Under `COc1cnc2c(-c3nc4cc(F)c(OC[C@@H](C)OC(=O)Nc5cnc(C)nc5)nc4s3)cc(C)cc2n1` [Example 678, (R)-1-((6-fluoro-2-(2-methoxy-7-methylquinoxalin-5-yl)thiazolo[5,4-b]pyridin-5-yl)oxy)propan-2-yl (2-methylpyrimidin-5-yl)carbamate] stands 1 nM; under `COc1cnc2c(-c3nc4cc(F)c(OC[C@@H](C)OC(=O)Nc5cnc(OC)nc5)nc4s3)cc(C)cc2n1` [Example 679, (R)-1-((6-fluoro-2-(2-methoxy-7-methylquinoxalin-5-yl)thiazolo[5,4-b]pyridin-5-yl)oxy) propan-2-yl (2-methoxypyrimidin-5-yl)carbamate], 2.5 nM; under `COc1cnc2c(-c3nc4cc(F)c(OC[C@@H](C)OC(=O)Nc5ccncc5)nc4s3)cc(C)cc2n1` [Example 680, (R)-1-((6-fluoro-2-(2-methoxy-7-methylquinoxalin-5-yl)thiazolo[5,4-b]pyridin-5-yl)oxy) propan-2-yl pyridin-4-ylcarbamate], 0.8 nM. For `COc1cnc2c(-c3nc4cc(F)c(OC[C@@H](C)OC(=O)Nc5ccc(C)nc5)nc4s3)cc(C)cc2n1` [Example 681, (R)-1-((6-fluoro-2-(2-methoxy-7-methylquinoxalin-5-yl)thiazolo[5,4-b]pyridin-5-yl)oxy) propan-2-yl (6-methylpyridin-3-yl)carbamate], the IC50 was found to be 0.4 nM. Consider `COc1cnc2c(-c3nc4cc(F)c(OC[C@@H](C)OC(=O)Nc5cncc(F)c5)nc4s3)cc(C)cc2n1` [Example 682, (R)-1-((6-fluoro-2-(2-methoxy-7-methylquinoxalin-5-yl)thiazolo[5,4-b]pyridin-5-yl)oxy) propan-2-yl (5-fluoropyridin-3-yl)carbamate], for which the 50% inhibitory concentration (IC50) came to 0.9 nM.

For `COc1cnc2c(-c3nc4cc(F)c(OC[C@@H](C)OC(=O)Nc5ccc6[nH]c(=O)oc6c5)nc4s3)cc(C)cc2n1` [Example 683, (R)-1-((6-fluoro-2-(2-methoxy-7-methylquinoxalin-5-yl)thiazolo[5,4-b]pyridin-5-yl)oxy) propan-2-yl (2-oxo-2,3-dihydrobenzo[d]oxazol-6-yl)carbamate], the IC50 came out at 0.7 nM. As to `COc1cnc2c(-c3nc4cc(F)c(OC[C@@H](C)OC(=O)Nc5cccnc5)nc4s3)cc(C)cc2n1` [Example 684, (R)-1-((6-fluoro-2-(2-methoxy-7-methylquinoxalin-5-yl)thiazolo[5,4-b]pyridin-5-yl)oxy) propan-2-yl pyridin-3-ylcarbamate], the IC50 was 0.7 nM. For `COc1cnc2c(-c3nc4cc(F)c(OC[C@@H](C)OC(=O)Nc5cnc(OCCO)nc5)nc4s3)cc(C)cc2n1` [Example 685, (R)-1-((6-fluoro-2-(2-methoxy-7-methylquinoxalin-5-yl)thiazolo[5,4-b]pyridin-5-yl)oxy) propan-2-yl (2-(2-hydroxyethoxy)pyrimidin-5-yl)carbamate] the value was 1.7 nM.

As a reminder, the IC50 is the midpoint of a concentration-inhibition curve.
